This passage reports melting point results from a melting point compilation (Tetko et al.; mined from patent text by program, amines drawn as free bases though some values may be those of a salt).

As a reminder, the melting point is the temperature of the solid-liquid transition.

`Cc1cc(C)cc(COC[C@@H](NC(=O)OC(C)(C)C)c2ccccc2)c1`: the melting point lay within 46 to 49 °C.
For `CC(C)(C)OC(=O)N1CCCCN1C(=O)OCc1ccccc1`, the melting point lay within 71 to 72 °C.
Molecule `Cc1ccc(Cl)cc1N1CN(Cc2ccccc2)CN(Cc2ccccc2)C1=S` returned a melting point of 202 to 203 °C.
`NS(=O)(=O)c1ccc(-n2nc(C(F)(F)F)c(Cl)c2-c2ccc(-c3cncs3)c(Cl)c2)cn1` showed a melting point of 191 to 193 °C.
The same measure for `COc1cc(C(=O)Cl)ccc1S(=O)(=O)Cl`: 86 to 88 °C; for `CN(C)C(=O)c1cccc(C(C(N)=O)c2cccc(Br)c2)c1` (stereo unspecified): 119 to 120 °C.
The same measure for `COC(C)(CCCCC(C)(C)O)c1cccc(C=Cc2cc(O)cc(O)c2)c1` (stereo unspecified): 65 to 75 °C.
As for `CCCn1cc2c(C3C(=O)Nc4ccc(Br)cc43)nc(NCC(O)CO)nc2n1` (stereo unspecified), the melting point lay within 295 to 297 °C.
In turn, `C#CCOc1ccc(/C=C/c2nc3ccccc3c(=O)o2)cc1OC` had a melting point of 177 to 178 °C.
The same measure for `Oc1cccc(-c2n[nH]c3ncnc(Nc4cccc(Cl)c4)c23)c1`: 118 to 119 °C; for `Nc1cc(C(c2cc(F)ccc2F)S(=O)(=O)c2ccc(Cl)nc2)c(Cl)cn1` (stereo unspecified): 157 to 158 °C.
In turn, `CNc1nc(Nc2ccc(Cl)c(Cl)c2)ncc1NP(C)(C)=O` came in with a melting point of 258 °C.
The same measure for `CSc1cc(C(F)(F)F)ccc1C#N`: 80 °C; for `CNc1cc(F)cc(NC)c1[N+](=O)[O-]`: 198 °C.
Molecule `CS(=O)(=O)Nc1ccc2[nH]c(=O)n(CCCCN3CC=C(c4ccccc4)CC3)c(=O)c2c1` yielded a melting point of 193 to 195 °C.
Consider `CCN1C(=O)C(=O)N(c2ccc(Cl)cc2C)C1=S`, for which the melting point lay within 161 to 162 °C.
`O=C1OC2(CCN(C(=O)Nc3ncc(-c4ccccc4)cn3)CC2)c2c(F)cccc21` registered a melting point of 244 to 246 °C.
The same measure for `NCCc1coc2ccc3c(c12)CCCO3`: 110 °C.
Regarding `CC(=O)c1cc(CS(C)(=O)=O)ccc1O`, the melting point lay in the range of 142 to 144 °C.
The same measure for `Nc1ccc(S)c(C(F)(F)F)c1`: 35 to 36.5 °C; for `CCOc1cc(N)c(Cl)cc1C(=O)NCC1CN(CC2CCN(Cc3cccc(F)c3)CC2)CCO1` (stereo unspecified): 172 to 174 °C.
`O=C(NCCCO)c1cccc(-c2cccc(Oc3cc(Cl)cc(Cl)c3)n2)c1`: the melting point was in the range of 101 to 102 °C.
The same measure for `Cc1nn(-c2ccccn2)c2ncc(C(=O)c3ccccc3)c(Cl)c12`: 177 to 178 °C; for `N#CC1C(=O)NC(=O)C12C(=O)N(Cc1ccc(Br)cc1F)c1ccccc12` (stereo unspecified): 208 to 210 °C.
The same measure for `CCC(C#N)=C1CCN(c2ccc(N3C[C@H](CNC(C)=S)OC3=O)cc2F)CC1`: 174 to 176 °C; for `CCOC(=O)C1=CNc2cccnc2S1`: 194 to 195 °C; for `O=C(O)C(=O)c1ccc(OCCCNC(=O)c2ccc3ccccc3c2)cc1`: 169 to 170 °C.
Consider `CCOC(=O)c1ccccc1CN1C(=O)C(CCOc2ccc(CCNC(=O)OC(C)(C)C)cc2)Oc2ccccc21` (stereo unspecified), for which the melting point lay within 103 to 105 °C.
The molecule `CCc1c(OC)nc2nc(-c3noc(C(F)(F)F)n3)cn2c1C` registered a melting point of 197 to 200 °C.
For the molecule `Nc1c(Cl)cc(C(=O)NCCC23CCCN2CCC3)c2c1CCO2`, the melting point was 124 °C.
With `CCOC(=O)C(C)(C)Oc1ccc(-c2ccc(CCNC(=O)c3cc(OC)c(OC)c(OC)c3)cc2)cc1`, the melting point is below 20 °C.
The same measure for `CC1(C)CCc2c(N3CCOCC3)nc3sc4c(NCc5ccncc5)ncnc4c3c2C1`: 240 to 241 °C; for `CCOC(=O)c1cc(/C=C/c2ccc(O)cc2)ccc1O`: 269 to 271 °C.
The same measure for `O=Cc1ccc(OCCc2coc(-c3ccccc3)n2)cc1`: 92 to 97 °C; for `CCc1nnc(-c2ccc(-c3ccccc3)nc2)n1-c1cccc(C(N)=O)c1C`: 162 to 163 °C.
In turn, `COC(=O)c1cc(-c2ccccc2)c(=O)n2c1-c1sc(Br)cc1CC2` yielded a melting point of 170 to 171 °C.
`C#CCN(c1ccc(C(=O)O)cc1)C1CCc2cc3nc(C)[nH]c(=O)c3cc21` (racemic): the melting point stood at 264 °C.
The same measure for `Cc1cn(CCCC(=O)O)c2ccccc12`: 82 to 84 °C; for `Cc1noc(NS(=O)(=O)c2ccc(Cl)c(Cl)c2)c1Br`: 144 to 146 °C.
The molecule `CCOC(=O)C(=CNC1CC1)C(=O)c1cc(F)c(-n2cccc2)cc1F` registered a melting point of 90 to 92 °C.
`CCOC(=O)C(=CNc1ccc(F)c(SCC)n1)C(=O)OCC` had a melting point of 77.5 to 78.5 °C.
The molecule `O=[N+]([O-])c1ccccc1N1CCCc2ccccc21` showed a melting point of 69 to 71 °C.
For `CCOC(=O)c1c(-c2ccccc2Cl)c2cc(Cl)ccc2[nH]c1=O`, the melting point lay in the range of 223 to 224 °C.
In turn, `C[C@@H]1CNC(=O)c2cc3cc(F)cc(Br)c3n21` came in with a melting point of 188 °C.
`COc1cc(Cc2cnc(NCCCCc3ncccc3OC)[nH]c2=O)ccn1` gave a melting point of 72 to 74 °C.
`Cc1ccccc1-c1c(NC(=O)Nc2ccc(F)cc2F)cnc2sc(Cl)cc12`: the melting point fell in the range of 225 to 226 °C.
On to `Cc1cc(C)c(Nc2nc(Nc3ccc(C#N)cc3)ncc2N)c(C)c1`, for which the melting point was in the range of 224 to 225 °C.
As to `CN1CCN(c2ccc(S(=O)(=O)c3ccccc3)c3ccccc23)CC1`, the melting point lay within 71 to 72 °C.
The same measure for `Fc1ccc(CN2CC=C(c3cc4ccccc4s3)CC2)cc1`: 142 to 144 °C.
As for `COc1ccc(C(=O)Nc2cccnc2Cl)cc1`, the melting point is 125 °C.
For the molecule `O=C(C(=O)N1CCCCC1)N1CCCCC1`, the melting point fell in the range of 88 to 90 °C.
Consider `COC(=O)C(Cl)=C(C)N`, for which the melting point lay in the range of 68 to 70 °C.
In turn, `O=P1(c2cccc(F)c2)c2ccccc2CN1c1ccccc1` (stereo unspecified) showed a melting point of 209 to 210 °C.
`CC1(C)C2CC[C@@]1(C)C(=O)C(C(=O)Nc1ccc(Cl)cc1)C2=O` (stereo partly specified) displayed a melting point of 88 to 90 °C.
The same measure for `c1ccc(Oc2ccc(C(c3ccccc3)(c3ccccn3)n3ccnc3)cc2)cc1` (stereo unspecified): 137 to 140 °C; for `O=C1c2ccccc2-c2[nH]c(=O)c(=O)[nH]c21`: 243 to 253 °C.
Take `O=C(O)c1ccc(Br)cc1Cc1ccccc1`: the melting point came out at 137 °C.
The same measure for `CCCCc1cc2ccccc2c(Oc2ccc(/C=C/C(=O)O)cc2)c1-c1ccc(F)cc1`: 169 to 170 °C; for `CC1(c2ccccc2)C(=O)c2c(cc(O)c(Cl)c2Cl)C1c1ccccc1` (stereo unspecified): 238 to 244 °C; for `CC(C)Cn1cnc2c(Cl)nc3ccccc3c21`: 134 to 136 °C.
With `CC(=O)SCCC(=O)N1[C@@H](c2ccccc2O)SC[C@H]1C(=O)N[C@@H](CC(C)C)C(=O)O`, the melting point fell in the range of 78 to 84 °C.
As for `Cc1ccc(-c2cccc(/C=C/C(=O)Nc3ccc(CN4CCN(Cc5ccc6c(c5)OCO6)CC4)cc3)c2)cc1`, the melting point lay in the range of 204 to 207 °C.
Consider `Cc1cc(C(=O)O)ncc1C(c1c(F)ccc(F)c1F)S(=O)(=O)CCC(F)(F)F` (stereo unspecified), for which the melting point was in the range of 85 to 87 °C.
`Cc1cc(C)c2c(n1)[nH]c(=O)c1ccccc12` gave a melting point of 276 to 278 °C.
With `Fc1cccc(F)c1-c1ccc2cccnc2n1`, the melting point was 100 to 103 °C.
For the molecule `CNC(=O)c1ccc(NC(=O)OC(C)(C)C)cc1`, the melting point came to 185 °C.
Consider `CCCNC(=O)c1ccc(C=O)cc1`, for which the melting point lay in the range of 71 to 74 °C.
For the molecule `O=C(CCn1cnc2c(=O)[nH]cnc21)NCCCN1CCOCC1`, the melting point lay in the range of 145 to 148 °C.
With `O=C(CBr)Nc1ccc(C(=O)O)cc1`, the melting point was 241 to 243 °C.
Consider `CCn1c([N+](=O)[O-])cnc1C=Cc1ccccc1`, for which the melting point was in the range of 231 to 233 °C.
For the molecule `CS(=O)(=O)c1ccc(-c2sc(NCc3ccccc3)nc2-c2ccc(F)cc2)cc1`, the melting point amounted to 112 °C.
`CCOC(=O)C(=O)Nc1cc([N+](=O)[O-])c2ccccc2c1NC(=O)C(=O)OCC`: the melting point lay in the range of 183 to 184 °C.
Take `COC(=O)CCCCCCC1=CCc2cc(OC)ccc21`: the melting point lay in the range of 30 to 31.5 °C.
In turn, `Cc1cccc(NC(=O)N[C@H]2C[C@@](N)(C(=O)O)[C@@H]3[C@@H](C(=O)O)[C@@H]32)c1` (relative stereo) gave a melting point above 250 °C.
On to `Cc1cc(Oc2cc(C)c([N+](=O)[O-])cn2)n[nH]1`, for which the melting point lay in the range of 136 to 139 °C.
For the molecule `N=C(NCc1ccccc1)NN=Cc1ccc(Cl)cc1Cl`, the melting point lay within 139 to 141 °C.
As for `O=C(N[C@H]1CC[C@H](CCN2CCN(c3nccc4c3CCO4)CC2)CC1)c1ccc(N2CCCCC2)cc1`, the melting point was 214 °C.
Molecule `COc1ccc(C=C2SCCS2)cc1OC` yielded a melting point of 74 to 75 °C.
In turn, `CC(C)(C)C(NC(=O)c1ccc(Cl)cc1)Nc1c(Nc2cccc(F)c2)c(=O)c1=O` (stereo unspecified) had a melting point of 271 to 272 °C.
The same measure for `CCOc1cc(C2CSCCC2=O)ccc1OC` (stereo unspecified): 108 to 110 °C; for `CCOC(=O)C(=O)c1scc(Br)c1Br`: 71 °C; for `O=C(O)COc1ccc(S(=O)(=O)C(Br)(Br)Br)cc1`: 238 to 246 °C.
`CCCCOc1ccc(N2CCN(c3cccc(C)c3)CC2)nn1` gave a melting point of 105 °C.
The same measure for `COC(=O)c1cccc(Oc2ccc([N+](=O)[O-])cc2C(=O)OC)c1`: 97 to 99 °C; for `CCOC(=O)c1ccc(-c2ncc(Cl)nc2Cl)cc1`: 88.5 to 90 °C; for `NC(=O)CCc1cc(C(=O)O)cc(S(N)(=O)=O)c1Oc1ccccc1`: 192 to 196 °C.
As to `CC(C)(C)CNc1nc(C#Cc2ccccc2)ccc1[N+](=O)[O-]`, the melting point was in the range of 90 to 92 °C.
For `O=C(O)C1=Cc2cc(Cl)c(Oc3ccc(Cl)c(F)c3)cc2OC1C(F)(F)F` (stereo unspecified), the melting point stood at 207 °C.
The same measure for `CN(C)Cc1cnc2n1-c1ccc(Br)cc1C(c1ccccn1)=NC2`: 200 to 202 °C; for `COC(=O)c1ccc2[nH]c(-c3ccc(OC)c4nc(C)ccc34)nc2c1`: 165 to 167 °C.
The same measure for `O=C(O)c1ccc(OCCCCCCCCCCO)cc1`: 115 to 117 °C.
